Test results as given in patent EP0550016A1, “Novel quinolone carboxylic acid derivatives and processes for preparing same” (KOREA RESEARCH INSTITUTE OF CHEMICAL TECHNOLOGY, priority 1991, dated 1993).
≈ marks a conversion by molar mass, not a printed value. Read-outs that look alike come from different tables or passages of the source.

How the values were obtained:
Experiment in all cases: In vitro anti-bacterial activity test (MIC, two-fold dilution method) against the standard strains
Assay type in all cases: cell-based
[1] = system: Streptococcus pyogenes 308 A; settings: Table 1 strain 1: Streptococcus pyogenes 308 A
[2] = system: Streptococcus pyogenes 77 A; settings: Table 1 strain 2: Streptococcus pyogenes 77 A; read-out: MIC
[3] = system: Streptococcus faecium MD 8b; settings: Enterococcus faecium, MD8B; Table 1 strain 3: Streptococcus faecium MD 8b; read-out: MIC
[4] = system: Staphylococcus aureus SG 511; settings: SG511; Table 1 strain 4: Staphylococcus aureus SG 511
[5] = system: Staphylococcus aureus 285; settings: Table 1 strain 5: Staphylococcus aureus 285; read-out: MIC
[6] = system: Staphylococcus aureus 503; settings: Table 1 strain 6: Staphylococcus aureus 503; read-out: MIC
Escherichia coli DC 0 [7] = settings: DC0; Table 1 strain 7: Escherichia coli DC 0
Escherichia coli DC 0 [8] = settings: DC0; Table 1 strain 8: Escherichia coli DC 0
Escherichia coli DC 2 = settings: DC2
Escherichia coli OTEM = settings: Table 1 strain 10: Escherichia coli OTEM
Escherichia coli 1507 E = settings: Table 1 strain 11: Escherichia coli 1507 E
[9] = system: Pseudomonas aeruginosa 9027; settings: Table 1 strain 12: Pseudomonas aeruginosa 9027
[10] = system: Pseudomonas aeruginosa 1592 E; settings: Table 1 strain 13: Pseudomonas aeruginosa 1592 E
[11] = system: Pseudomonas aeruginosa 1771; settings: Table 1 strain 14: Pseudomonas aeruginosa 1771
[12] = system: Pseudomonas aeruginosa 1771 M; settings: Table 1 strain 15: Pseudomonas aeruginosa 1771 M
Salmonella typhimurium = settings: Salmonella enterica; Table 1 strain 16: Salmonella typhimurium
[13] = system: Klebsiella aerogenes 1082 E; settings: Table 1 strain 17: Klebsiella aerogenes 1082 E
[14] = system: Klebsiella aerogenes 1522 E; settings: Table 1 strain 18: Klebsiella aerogenes 1522 E
[15] = system: Enterobacter cloacae P 99; settings: P99; Table 1 strain 19: Enterobacter cloacae P 99
[16] = system: Enterobacter cloacae 1321 E; settings: Table 1 strain 20: Enterobacter cloacae 1321 E
[17] = Table 1 strain 9: Escherichia coli DC 2, read-out: MIC

SMILES | MIC [1] [µg/mL] | MIC [2] [µg/mL] | MIC [3] [µg/mL] | MIC [4] [µg/mL] | MIC [5] [µg/mL] | MIC [6] [µg/mL] | MIC (Escherichia coli DC 0 [7]) [µg/mL] | MIC (Escherichia coli DC 0 [8]) [µg/mL] | MIC (Escherichia coli DC 2; [17]) [µg/mL] | MIC (Escherichia coli OTEM) [µg/mL] | MIC (Escherichia coli 1507 E) [µg/mL] | MIC [9] [µg/mL] | MIC [10] [µg/mL] | MIC [11] [µg/mL] | MIC [12] [µg/mL] | MIC (Salmonella typhimurium) [µg/mL] | MIC [13] [µg/mL] | MIC [14] [µg/mL] | MIC [15] [µg/mL] | MIC [16] [µg/mL] | other results
CNC1CC12CCN(c1c(F)c(N)c3c(=O)c(C(=O)O)cn(C4CC4)c3c1F)C2 (centres unmarked) [Example 12, 7-(1-methylamino-5-azaspiro[2,4]heptane-5-yl)-1-cyclopropyl-5-amino-6,8-difluoro-1,4-dihydro-4-oxoquinoline-3-carboxylic acid] | 0.195 (≈ 0.482 µM) | 0.195 (≈ 0.482 µM) | 0.195 (≈ 0.482 µM) | 0.025 (≈ 0.0618 µM) | 0.025 (≈ 0.0618 µM) | 0.025 (≈ 0.0618 µM) | 0.025 (≈ 0.0618 µM) | 0.391 (≈ 0.967 µM) | 0.195 (≈ 0.482 µM) | 0.049 (≈ 0.121 µM) | 0.049 (≈ 0.121 µM) | 3.12 (≈ 7.73 µM) | 3.12 (≈ 7.73 µM) | 1.56 (≈ 3.86 µM) | 0.391 (≈ 0.967 µM) | 0.049 (≈ 0.121 µM) | < 0.002 | 0.098 (≈ 0.242 µM) | 0.049 (≈ 0.121 µM) | 0.025 (≈ 0.0618 µM) | –
COc1c(N2CCC3(CC3N)C2)c(F)cc2c(=O)c(C(=O)O)cn(C3CC3)c12 (centres unmarked) [Example 19, 7-(1-amino-5-azaspiro[2,4]heptane-5-yl)-1-cyclopropyl-8-methoxy-6-fluoro-1,4-dihydro-4-oxoquinoline-3-carboxylic acid] | 0.195 (≈ 0.503 µM) | 0.098 (≈ 0.253 µM) | 0.098 (≈ 0.253 µM) | 0.025 (≈ 0.0645 µM) | 0.049 (≈ 0.126 µM) | 0.025 (≈ 0.0645 µM) | 0.025 (≈ 0.0645 µM) | 0.391 (≈ 1.01 µM) | 0.049 (≈ 0.126 µM) | 0.049 (≈ 0.126 µM) | 0.049 (≈ 0.126 µM) | 1.56 (≈ 4.03 µM) | 1.56 (≈ 4.03 µM) | 1.56 (≈ 4.03 µM) | 0.391 (≈ 1.01 µM) | 0.049 (≈ 0.126 µM) | 0.007 (≈ 0.0181 µM) | 0.098 (≈ 0.253 µM) | 0.049 (≈ 0.126 µM) | 0.025 (≈ 0.0645 µM) | –
CC(O)C(=O)O.NC1CC12CCN(c1c(F)cc3c(=O)c(C(=O)O)cn(C4CC4)c3c1Cl)C2 (centres unmarked) [Example 4, 7-(1-amino-5-azaspiro[2,4]heptane-5-yl)-8-chloro-1-cyclopropyl-6-fluoro-1,4-dihydro-4-oxoquinoline-3-carboxylic acid lactate] | 0.098 | 0.049 | 0.098 | 0.025 | 0.025 | 0.013 | 0.007 | 0.098 | – | 0.025 | 0.025 | 0.781 | 0.781 | 0.781 | 0.195 | 0.025 | < 0.002 | 0.025 | 0.025 | 0.007 | MIC (Escherichia coli DC 2; Escherichia coli): 0.049 µg/mL
C[C@H]1COc2c(N3CCC4(CC4C(=O)O)C3)c(F)cc3c(=O)c(C(=O)O)cn1c23 (some centres unmarked) [Example 14] | 3.12 (≈ 7.77 µM) | 1.56 (≈ 3.88 µM) | 1.56 (≈ 3.88 µM) | 0.098 (≈ 0.244 µM) | 0.098 (≈ 0.244 µM) | 0.098 (≈ 0.244 µM) | 0.195 (≈ 0.485 µM) | 6.25 (≈ 15.5 µM) | 0.391 (≈ 0.972 µM) | 0.391 (≈ 0.972 µM) | 0.781 (≈ 1.94 µM) | 12.5 (≈ 31.1 µM) | 6.25 (≈ 15.5 µM) | 12.5 (≈ 31.1 µM) | 1.56 (≈ 3.88 µM) | 0.781 (≈ 1.94 µM) | 0.098 (≈ 0.244 µM) | 1.56 (≈ 3.88 µM) | 0.391 (≈ 0.972 µM) | 0.195 (≈ 0.485 µM) | –
NC1CC12CCCN(c1c(F)cc3c(=O)c(C(=O)O)cn(C4CC4)c3c1F)C2 (centres unmarked) [Example 16, 7-(1-amino-5-azaspiro[2,5]octane-5-yl)-1-cyclopropyl-6,8-difluoro-1,4-dihydro-4-oxoquinoline-3-carboxylic acid] | 0.781 (≈ 2.01 µM) | 0.391 (≈ 1 µM) | 0.391 (≈ 1 µM) | 0.098 (≈ 0.252 µM) | 0.098 (≈ 0.252 µM) | 0.098 (≈ 0.252 µM) | 0.049 (≈ 0.126 µM) | 1.56 (≈ 4.01 µM) | 0.195 (≈ 0.501 µM) | 0.098 (≈ 0.252 µM) | 0.098 (≈ 0.252 µM) | 6.25 (≈ 16.1 µM) | 3.12 (≈ 8.03 µM) | 3.12 (≈ 8.03 µM) | 0.781 (≈ 2.01 µM) | 0.049 (≈ 0.126 µM) | 0.013 (≈ 0.0334 µM) | 0.098 (≈ 0.252 µM) | 0.049 (≈ 0.126 µM) | 0.049 (≈ 0.126 µM) | –
CNC1CC12CCN(c1c(F)cc3c(=O)c(C(=O)O)cn4c3c1OC[C@@H]4C)C2 (stereo partly drawn) [Example 10, 9-fluoro-3-(S)-methyl-10-(1-methylamino-5-azaspiro[2,4]heptane-5-yl)-7-oxo-2,3-dihydro-7H-pyrido-[1,2,3-de]-1,4-benzoxazine-6-carboxylic acid] | 0.391 (≈ 1.01 µM) | 0.195 (≈ 0.503 µM) | 0.195 (≈ 0.503 µM) | 0.049 (≈ 0.126 µM) | 0.049 (≈ 0.126 µM) | 0.049 (≈ 0.126 µM) | 0.025 (≈ 0.0645 µM) | 0.391 (≈ 1.01 µM) | 0.049 (≈ 0.126 µM) | 0.049 (≈ 0.126 µM) | 0.098 (≈ 0.253 µM) | 1.56 (≈ 4.03 µM) | 1.56 (≈ 4.03 µM) | 1.56 (≈ 4.03 µM) | 0.781 (≈ 2.02 µM) | 0.049 (≈ 0.126 µM) | 0.007 (≈ 0.0181 µM) | 0.098 (≈ 0.253 µM) | 0.049 (≈ 0.126 µM) | 0.025 (≈ 0.0645 µM) | –
NCC1CC12CCN(c1c(F)cc3c(=O)c(C(=O)O)cn(C4CC4)c3c1F)C2 (centres unmarked) [Example 15] | 0.781 (≈ 2.01 µM) | 0.195 (≈ 0.501 µM) | 0.391 (≈ 1 µM) | 0.098 (≈ 0.252 µM) | 0.195 (≈ 0.501 µM) | 0.195 (≈ 0.501 µM) | 0.049 (≈ 0.126 µM) | 0.781 (≈ 2.01 µM) | 0.098 (≈ 0.252 µM) | 0.098 (≈ 0.252 µM) | 0.098 (≈ 0.252 µM) | 1.56 (≈ 4.01 µM) | 1.56 (≈ 4.01 µM) | 1.56 (≈ 4.01 µM) | 0.391 (≈ 1 µM) | 0.098 (≈ 0.252 µM) | 0.025 (≈ 0.0642 µM) | 0.195 (≈ 0.501 µM) | 0.195 (≈ 0.501 µM) | 0.049 (≈ 0.126 µM) | –
NC1CC12CCN(c1nc3c(cc1F)c(=O)c(C(=O)O)cn3C1CC1)C2 (centres unmarked) [Example 6, 7-(1-amino-5-azaspiro[2,4]heptane-5-yl)-1-cyclopropyl-6-fluoro-4-oxo-1,4-dihydro-1,8-naphthyridine-3-carboxylic acid] | 0.391 (≈ 1.09 µM) | 0.195 (≈ 0.544 µM) | 0.195 (≈ 0.544 µM) | 0.049 (≈ 0.137 µM) | 0.049 (≈ 0.137 µM) | 0.049 (≈ 0.137 µM) | < 0.002 | 0.391 (≈ 1.09 µM) | 0.098 (≈ 0.273 µM) | 0.025 (≈ 0.0698 µM) | 0.025 (≈ 0.0698 µM) | 1.56 (≈ 4.36 µM) | 1.56 (≈ 4.36 µM) | 1.56 (≈ 4.36 µM) | 0.195 (≈ 0.544 µM) | 0.025 (≈ 0.0698 µM) | 0.391 (≈ 1.09 µM) | 0.025 (≈ 0.0698 µM) | 0.007 (≈ 0.0195 µM) | < 0.002 | –
CNC1CC12CCN(c1cc3c(cc1F)c(=O)c(C(=O)O)cn3C1CC1)C2 (centres unmarked) [Example 11, 7-(1-methylamino-5-azaspiro[2,4]heptane-5-yl)-1-cyclopropyl-6-fluoro-1,4-dihydro-4-oxoquinoline-3-carboxylic acid] | 0.781 (≈ 2.1 µM) | 0.781 (≈ 2.1 µM) | 0.781 (≈ 2.1 µM) | 0.098 (≈ 0.264 µM) | 0.098 (≈ 0.264 µM) | 0.098 (≈ 0.264 µM) | 0.049 (≈ 0.132 µM) | 1.56 (≈ 4.21 µM) | 0.195 (≈ 0.525 µM) | 0.098 (≈ 0.264 µM) | 0.098 (≈ 0.264 µM) | 3.12 (≈ 8.41 µM) | 3.12 (≈ 8.41 µM) | 3.12 (≈ 8.41 µM) | 0.781 (≈ 2.1 µM) | 0.098 (≈ 0.264 µM) | 0.004 (≈ 0.0108 µM) | 0.098 (≈ 0.264 µM) | 0.098 (≈ 0.264 µM) | 0.049 (≈ 0.132 µM) | –
NC1CC12CCN(c1cc3c(cc1F)c(=O)c(C(=O)O)cn3C1CC1)C2 (centres unmarked) [Example 5, 7-(1-amino-5-azaspiro[2,4]heptane-5-yl)-1-cyclopropyl-6-fluoro-1,4-dihydro-4-oxoquinoline-3-carboxylic acid] | 0.391 (≈ 1.09 µM) | 0.391 (≈ 1.09 µM) | 0.195 (≈ 0.546 µM) | 0.098 (≈ 0.274 µM) | 0.098 (≈ 0.274 µM) | 0.098 (≈ 0.274 µM) | 0.025 (≈ 0.07 µM) | 0.781 (≈ 2.19 µM) | 0.098 (≈ 0.274 µM) | 0.049 (≈ 0.137 µM) | 0.098 (≈ 0.274 µM) | 1.56 (≈ 4.37 µM) | 1.56 (≈ 4.37 µM) | 1.56 (≈ 4.37 µM) | 0.391 (≈ 1.09 µM) | 0.049 (≈ 0.137 µM) | 0.004 (≈ 0.0112 µM) | 0.049 (≈ 0.137 µM) | 0.049 (≈ 0.137 µM) | 0.025 (≈ 0.07 µM) | –
